The results in this text go back to patent US20050043304A1, “Novel amine derivative having human beta-tryptase inhibitory activity and drugs containing the same” (priority 2001, published 2005).

Like-named read-outs stand apart in the source and are kept apart here.

One data set deals with T1, β-tryptase (Homo sapiens, UniProt Q15661).
T1 construct: purchased Promega Corporation
Description: β-Tryptase Inhibition Test. The format is biochemical. On the procedure: Sixty μL of a tris-hydrochloric acid buffer (pH 7.5, containing 200 ng/mL of heparin) was added to 20 μL of β-tryptase (manufactured by Promega Corporation) adjusted to 100 ng/mL with the same buffer. Then, 1 μL of a dimethyl sulfoxide (hereinafter, abbreviated to DMSO) solution as a test compound adjusted to a concentration 100 times as high as the final concentration was added to the mixture. After that, 20 μL of a 0.5 mM synthetic substrate Boc-Phe-Ser-Arg-MCA (manufactured by Peptide Institute, Inc) was added to the mixture, and the whole was reacted at 25° C. for 1 hour, followed by the addition of 100 μL of 20% acetic acid for stopping the reaction. Measured was fluorescence of free MCA generated by laser light with an excitation wavelength of 355 nm (fluorescent wavelength=460 nm, hereinafter abbreviated to F 460 nm).
Δ fluorescence count value (a fluorescence count value after an enzyme reaction—a fluorescence count value before the enzyme reaction) was used for a measure of an enzyme inhibition reaction of a drug, and the enzyme inhibition reaction was evaluated in terms of a suppression rate calculated by the following equation.
A=Δ F 460 nm of a mixture (control) of a substrate containing 1% DMSO and an enzyme
B=Δ F 460 nm of a mixture of a substrate containing a drug dissolved in DMSO and an enzyme
C=Δ F 460 nm of a mixture (blank) containing 1% DMSO and a substrate
Suppression rate (%)=(A−B)×100/(A−C)
The β-tryptase inhibitory activity was measured by the method described above.

Another data set concerns trypsin. Description: Trypsin Inhibition Test. To be noted: substrate S-2222, 37° C., 20 minutes; read-out: Enzyme Inhibition IC50 Trypsin. The format is biochemical. How it is done:
Added to 158 μL of a 20 mM tris-hydrochloric acid buffer (pH 7.5, containing 130 mM NaCl, 3.75 mM CaCl2, and 0.1% BSA) was 20 μL of a trypsin solution (manufactured by Sigma, a stock solution of […] was adjusted to 100 ng/mL with 0.001 N HCl containing 0.1% BSA). After that, 2 μL of a DMSO solution as a test compound adjusted to a concentration 100 times as high as the final concentration was added to the mixture, and the whole was reacted at 37° C. for 3 minutes. Then, 20 μL of a 2 mM synthetic substrate S-2222 (manufactured by Daiichi Pure Chemicals Co., Ltd.) was added to the mixture, and the whole was reacted at 37° C. for an additional 20 minutes, followed by addition of 100 μL of 20% acetic acid for stopping the reaction. After that, absorbance at 405 nm (hereinafter, abbreviated to OD 405 nm) was measured with a microplate reader.

In another data set the target is T2, FXa (Homo sapiens, UniProt P00742).
T2 construct: FXa (manufactured by Enzyme Research Ltd.); purchased Enzyme Research Ltd
Description: FXa Inhibition Test. In kind it is biochemical. How it is done:
158 μL of a 20 mM tris-hydrochloric acid buffer (pH 7.5, containing 130 mM NaCl, 3.75 mM CaCl2, and 0.1% BSA) was placed on a 96 well microplate, and 20 μL of FXa (manufactured by Enzyme Research Ltd.) adjusted to 0.1 U/mL with the buffer was added to the buffer. Then, 2 μL of a DMSO solution as a test compound adjusted to a concentration 100 times as high as the final concentration was added to the mixture, and the whole was reacted at 37° C. for 3 minutes. After that, 20 μL of an S-2222 substrate solution adjusted to 2 mM with the buffer was added to the mixture, and the whole was reacted at 37° C. for 30 minutes, followed by addition of 100 μL of 20% acetic acid for stopping the reaction. After that, OD 405 nm was measured with a microplate reader.

The mark [1] stands for this setting: selectivity test, Table 7, read-out: Enzyme Inhibition IC50 Tryptase.
Setting [2] is: substrate S-2222, 37° C., 30 minutes, read-out: Enzyme Inhibition IC50 FXa.
Setting [3] is: substrate Boc-Phe-Ser-Arg-MCA, 25° C., 1 hour, read-out: Tryptase Inhibiting Activity IC50.
Where [4] appears, read: read-out: β-tryptase inhibitory activity in terms of IC50.
[5] abbreviates: read-out: FXa inhibiting activity in terms of IC50.
Setting [6] is: Enzyme Inhibition IC50 Tryptase, selectivity test, Table 7.
Setting [7] is: Tryptase Inhibiting Activity IC50, substrate Boc-Phe-Ser-Arg-MCA, 25° C., 1 hour.

T2 sequence (P00742 235-488 limits assumed): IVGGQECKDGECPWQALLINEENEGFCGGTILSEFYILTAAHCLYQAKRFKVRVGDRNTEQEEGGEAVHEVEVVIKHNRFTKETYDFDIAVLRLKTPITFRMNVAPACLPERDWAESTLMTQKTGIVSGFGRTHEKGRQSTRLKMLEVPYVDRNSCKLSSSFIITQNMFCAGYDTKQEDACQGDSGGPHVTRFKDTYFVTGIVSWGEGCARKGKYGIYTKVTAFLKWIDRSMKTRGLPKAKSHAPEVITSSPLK
T2 sequence (P00742 41-179 partner limits assumed): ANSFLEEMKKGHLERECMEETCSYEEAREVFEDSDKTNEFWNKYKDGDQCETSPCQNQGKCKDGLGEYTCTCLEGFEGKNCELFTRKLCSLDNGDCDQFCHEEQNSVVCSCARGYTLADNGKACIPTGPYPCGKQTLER
T1 sequence (Q15661 31-275): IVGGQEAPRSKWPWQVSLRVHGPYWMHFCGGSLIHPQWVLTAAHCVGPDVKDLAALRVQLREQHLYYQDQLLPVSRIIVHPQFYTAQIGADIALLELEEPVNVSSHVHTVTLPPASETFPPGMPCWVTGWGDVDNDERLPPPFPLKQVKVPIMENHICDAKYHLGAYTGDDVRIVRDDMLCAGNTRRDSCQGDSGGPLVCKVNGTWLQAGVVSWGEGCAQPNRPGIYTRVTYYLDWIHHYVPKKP

For the compound `CC(=O)c1ccc2[nH]c(C(=O)NCCN(C)CCCc3ccc(CN)cc3)cc2c1` [Compound 70], the IC50 was 0.008 µM on β-tryptase (setting [1]), greater than 100 µM in the data set with trypsin and greater than 100 µM at FXa (setting [2]).
In the case of `CN(CCCc1ccc(CN)cc1)CCNC(=O)c1c[nH]c2ccccc12` [Compound 51], at β-tryptase (setting [3]), the IC50 was 0.1 µM.
With `NCc1ccc(CCCNCCNC(=O)c2ccc3ccccc3c2)cc1` [Compound 11], the melting point was 69.7 to 72.2 °C. In addition, the IC50 on β-tryptase (setting [1]) was 0.15 µM. Also, at β-tryptase (setting [3]), the IC50 amounted to 0.15 µM. The IC50 in the data set with trypsin is greater than 30 µM. Further, the IC50 on FXa (setting [2]) was greater than 30 µM.
In the case of `CN(CCCc1ccc(CN)cc1)CCNC(=O)c1cc2cc(C(=O)O)ccc2[nH]1` [Compound 69], the IC50 on β-tryptase (setting [3]) stood at 0.055 µM.
`CN(CCCc1ccc(CN)cc1)CCNC(=O)c1ccc2cc(Br)ccc2c1` [compound 41]: the results for the IC50 on β-tryptase (setting [4]) and on FXa (setting [5]) were no more than 0.01 µM and no less than 100 µM, respectively.
On to `CN(CCCc1ccc(CN)cc1)CCNC(=O)c1sc2ccccc2c1Cl` [Compound 49], for which, at β-tryptase (setting [3]), the IC50 was found to be 0.015 µM.
In the case of `CC(=O)c1ccc2[nH]c(C(=O)NCCN(C)CCCc3ccc(CN)cc3)cc2c1` [compound 70], the IC50 at β-tryptase (setting [4]) was no more than 0.01 µM; on FXa (setting [5]), no less than 100 µM.
With `CN(CCCc1ccc(CN)cc1)CCNS(=O)(=O)c1ccc2ccccc2c1` [Compound 17], the melting point lay in the range of 91.6 to 92 °C. Further, 0.12 µM corresponded to half-maximal inhibition against β-tryptase (IC50). On β-tryptase (setting [6]), this compound yielded a concentration for half-maximal inhibition (IC50) of 0.12 µM. Further, in the data set on trypsin, the IC50 was greater than 30 µM. Also, at FXa (setting [2]), the IC50 was greater than 30 µM.
For `NCc1ccc(CCCNCCNS(=O)(=O)c2ccc3ccccc3c2)cc1` [Compound 1], the IC50 was 0.086 µM against β-tryptase, 0.086 µM at β-tryptase (setting [6]), greater than 100 µM with trypsin and greater than 100 µM on FXa (setting [2]).
In the case of `CN(CCCc1ccc(CN)cc1)CCNC(=O)c1cc2cc(C(F)(F)F)ccc2[nH]1` [Compound 63], the IC50 on β-tryptase (setting [3]) came out at 0.032 µM.
The compound `CN(CCCc1ccc(CN)cc1)CCNC(=O)c1cc2cc(Cl)ccc2[nH]1` [Compound 58] yielded a melting point of 166.4 to 170 °C. For the same compound, the IC50 on β-tryptase (setting [1]) was 0.006 µM. Besides, the IC50 with trypsin is greater than 100 µM. Moreover, the IC50 on FXa (setting [2]) was greater than 100 µM.
As to `CN(CCCc1ccc(CN)cc1)CCNC(=O)c1nc2ccccc2s1` [Compound 77], the IC50 at β-tryptase (setting [3]) was 0.073 µM.
Take `CN(CCCc1ccc(CN)cc1)CCNC(=O)c1ccc2c(ccn2C)c1` [compound 73]: at β-tryptase (setting [4]), the IC50 is no more than 0.01 µM.
Consider `CN(CCCc1ccc(CN)nc1)CCNC(=O)c1ccc2[nH]ccc2c1` [Compound 89], for which, at β-tryptase (setting [3]), the half-maximal inhibitory concentration (IC50) worked out at 0.14 µM.
`CN(CCCc1ccc(CN)cc1)CCN(C)C(=O)c1cc2cc(Cl)ccc2[nH]1` [Compound 87] showed a melting point of 190.2 to 191.4 °C. For the same compound, the IC50 at β-tryptase (setting [3]) was found to be 0.001 µM.
On to `CN(CCCc1ccc(CN)cc1)CCNC(=O)c1cc2cc(OCc3ccccc3)ccc2[nH]1` [Compound 72], for which the IC50 on β-tryptase (setting [1]) was 0.015 µM; with trypsin, greater than 100 µM; at FXa (setting [2]) it was greater than 100 µM.
Take `CN(CCCc1ccc(CN)cc1)CCN(C)C(=O)c1cc2cc(Cl)ccc2[nH]1` [compound 87]: the IC50 at β-tryptase (setting [4]) is no more than 0.01 µM.
As for `CN(CCCc1ccc(CN)cc1)CCNC(=O)c1cc2cc(Br)ccc2[nH]1` [compound 61], the results for the IC50 on β-tryptase (setting [4]) and at FXa (setting [5]) were no more than 0.01 µM and no less than 100 µM, respectively.
With `NCc1ccc(CCCN(CCNS(=O)(=O)c2ccc3ccccc3c2)CCC(=O)O)cc1` [Compound 33], at β-tryptase (setting [3]), the IC50 was determined as 0.44 µM.
In turn, `NCc1ccc(CCCNCCNS(=O)(=O)c2ccc3c(c2)CCC3)cc1` [Compound 7] showed a melting point of 199 to 199.7 °C. This compound also came in with an IC50 against β-tryptase (setting [7]) of 0.2 µM.
On to `CN(CCCc1ccc(CN)cc1)CCNC(=O)c1ccc2c(ccn2C)c1` [Compound 73], for which the IC50 at β-tryptase (setting [3]) came out at 0.001 µM.
On to `CN(CCCc1ccc(CN)cc1)CCNC(=O)c1ccc2cc(Br)ccc2c1` [Compound 41], for which the IC50 on β-tryptase (setting [1]) is 0.008 µM; in the data set with trypsin, greater than 100 µM; on FXa (setting [2]) it was greater than 100 µM.
Take `CN(CCCc1ccc(CN)cc1)CCNC(=O)c1ccc2occc2c1` [Compound 46]: at β-tryptase (setting [3]), the IC50 stood at 0.064 µM.
Turning to `CN(CCCc1ccc(CN)s1)CCNC(=O)c1cc2ccccc2s1` [Compound 90], at β-tryptase (setting [3]), the IC50 came to 0.2 µM.
The compound `NCc1ccc(CCCNCCNC(=O)c2ccc3ncccc3c2)cc1` [Compound 13] yielded a melting point of 269.5 to 271.2 °C. The IC50 on β-tryptase (setting [3]) came out at 0.19 µM.
As to `CN(CCCc1ccc(CN)cc1)CCNCc1cc2ccccc2s1` [Compound 91], the IC50 on β-tryptase (setting [3]) came out at 0.31 µM.
The same measure, in the same setting: the result for `CCN(CCCc1ccc(CN)cc1)CCNS(=O)(=O)c1ccc2ccccc2c1` [Compound 18] reads 0.14 µM.
In the case of `NCc1ccc(CCCNCCNS(=O)(=O)c2ccc3ccccc3c2Cl)cc1` [Compound 4], the melting point was in the range of 264.3 to 265.6 °C. Moreover, the IC50 in the data set with trypsin is greater than 100 µM. For the same compound, the IC50 on FXa (setting [2]) is greater than 100 µM.
With `CN(CCCc1ccc(CN)cc1)CCNC(=O)c1ccc2cc[nH]c2c1` [Compound 53], the IC50 at β-tryptase (setting [3]) was found to be 0.005 µM.
Regarding `CN(CCCc1ccc(CN)cc1)CCNC(=O)c1cc2cc(F)ccc2[nH]1` [Compound 62], on β-tryptase (setting [3]), the IC50 was determined as 0.014 µM.
Consider `NCc1ccc(CCCNCCNS(=O)(=O)c2ccc3c(c2)CNCC3)cc1` [Compound 9], for which the melting point is 233.9 to 234.5 °C. Also, it took 0.19 µM to reach half-maximal inhibition against β-tryptase (setting [7]) (IC50).
Regarding `Cc1ccc2[nH]c(C(=O)NCCN(C)CCCc3ccc(CN)cc3)cc2c1` [Compound 55], the IC50 is 0.005 µM on β-tryptase (setting [1]), 0.005 µM at β-tryptase (setting [3]), greater than 100 µM in the data set with trypsin and greater than 100 µM on FXa (setting [2]).
Turning to `CN(CCCc1ccc(CN)cc1)CCNC(=O)c1cc2ccccc2o1` [Compound 45], the IC50 on β-tryptase (setting [3]) was 0.02 µM.
On to `CN(CCCc1ccc(CN)cc1)CCNC(=O)c1cc2cc(Cl)ccc2[nH]1` [compound 58], for which the half-maximal inhibitory concentration (IC50) on β-tryptase (setting [4]) is no more than 0.01 µM; at FXa (setting [5]), no less than 100 µM.
In the case of `CN(CCCc1ccc(CN)cc1)CCNC(=O)c1ccc2cc[nH]c2c1` [compound 53], the IC50 at β-tryptase (setting [4]) was no more than 0.01 µM.
For the compound `CN(CCCc1ccc(CN)cc1)CCNC(=O)c1cc2cc(Br)ccc2[nH]1` [Compound 61], the IC50 on β-tryptase (setting [1]) was 0.006 µM; on β-tryptase (setting [3]), 0.006 µM; in the data set on trypsin, greater than 100 µM; at FXa (setting [2]) it was greater than 100 µM.
Compound `NCc1ccc(CCCNCCNS(=O)(=O)c2ccc3sccc3c2)cc1` [Compound 5] yielded a melting point of 264.2 to 265.4 °C. The same compound yielded an IC50 on β-tryptase (setting [7]) of 0.21 µM.
Take `NCc1ccc(CCCNCCNS(=O)(=O)c2ccc3ccccc3c2Cl)cc1` [compound 4]: the IC50 on FXa (setting [5]) is no less than 100 µM.
The compound `CN(CCCc1ccc(CN)cc1)CCNS(=O)(=O)c1ccc2ccccc2c1Cl` [Compound 20] yielded a melting point of 221.5 to 222.7 °C. For the same compound, the IC50 at β-tryptase (setting [3]) was determined as 0.015 µM.
Take `CN(CCCc1ccc(CN)cc1)CCNC(=O)c1ccc2ncsc2c1` [Compound 78]: the IC50 on β-tryptase (setting [3]) came out at 0.02 µM.
As for `Cc1ccc2[nH]c(C(=O)NCCN(C)CCCc3ccc(CN)cc3)cc2c1` [compound 55], the IC50 at β-tryptase (setting [4]) is no more than 0.01 µM; on FXa (setting [5]), no less than 100 µM.

By IC50 is commonly meant the concentration that inhibits the measured activity by half. As a reminder, the melting point is the temperature of the solid-liquid transition.
